In PMC9574867, “Discovery and Characterization of Synthesized and FDA-Approved Inhibitors of Clostridial and Bacillary Collagenases” (Journal of Medicinal Chemistry, 2022):
Entries after “also recorded” stand apart in the source; their conditions may differ.

Assays:
ColQ1-CU = ColQ1-CU (Bacillus cereus, UniProt B9J3S4); assay type: binding, B. cereus; details: intact protein HPLC-MS, overnight treatment
ColA-CU = ColA-CU (Bacillus cereus, UniProt Q81BJ6); assay type: biochemical, B. cereus; details: rapid dilution
ColA-CU, sequence (Q81BJ6 93-764): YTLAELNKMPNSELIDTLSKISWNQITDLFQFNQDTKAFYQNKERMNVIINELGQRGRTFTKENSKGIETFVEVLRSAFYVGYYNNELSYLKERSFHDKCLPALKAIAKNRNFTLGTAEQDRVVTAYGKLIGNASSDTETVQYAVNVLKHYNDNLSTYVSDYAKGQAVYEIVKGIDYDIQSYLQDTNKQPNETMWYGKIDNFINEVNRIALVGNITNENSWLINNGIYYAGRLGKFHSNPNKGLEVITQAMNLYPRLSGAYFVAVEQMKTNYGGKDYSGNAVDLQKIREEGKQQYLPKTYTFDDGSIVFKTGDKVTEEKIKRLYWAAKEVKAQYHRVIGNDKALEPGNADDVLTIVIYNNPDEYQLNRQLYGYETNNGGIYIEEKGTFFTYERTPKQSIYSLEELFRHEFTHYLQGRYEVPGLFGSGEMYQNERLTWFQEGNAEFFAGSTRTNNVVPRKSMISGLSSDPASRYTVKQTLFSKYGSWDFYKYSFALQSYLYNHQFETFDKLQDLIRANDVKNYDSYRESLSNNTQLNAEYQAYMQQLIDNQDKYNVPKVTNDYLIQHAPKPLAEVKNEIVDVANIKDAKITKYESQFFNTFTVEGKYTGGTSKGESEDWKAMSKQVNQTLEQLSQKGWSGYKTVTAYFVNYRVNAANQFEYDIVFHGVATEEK

ColQ1-CU, sequence (B9J3S4 94-765 limits assumed): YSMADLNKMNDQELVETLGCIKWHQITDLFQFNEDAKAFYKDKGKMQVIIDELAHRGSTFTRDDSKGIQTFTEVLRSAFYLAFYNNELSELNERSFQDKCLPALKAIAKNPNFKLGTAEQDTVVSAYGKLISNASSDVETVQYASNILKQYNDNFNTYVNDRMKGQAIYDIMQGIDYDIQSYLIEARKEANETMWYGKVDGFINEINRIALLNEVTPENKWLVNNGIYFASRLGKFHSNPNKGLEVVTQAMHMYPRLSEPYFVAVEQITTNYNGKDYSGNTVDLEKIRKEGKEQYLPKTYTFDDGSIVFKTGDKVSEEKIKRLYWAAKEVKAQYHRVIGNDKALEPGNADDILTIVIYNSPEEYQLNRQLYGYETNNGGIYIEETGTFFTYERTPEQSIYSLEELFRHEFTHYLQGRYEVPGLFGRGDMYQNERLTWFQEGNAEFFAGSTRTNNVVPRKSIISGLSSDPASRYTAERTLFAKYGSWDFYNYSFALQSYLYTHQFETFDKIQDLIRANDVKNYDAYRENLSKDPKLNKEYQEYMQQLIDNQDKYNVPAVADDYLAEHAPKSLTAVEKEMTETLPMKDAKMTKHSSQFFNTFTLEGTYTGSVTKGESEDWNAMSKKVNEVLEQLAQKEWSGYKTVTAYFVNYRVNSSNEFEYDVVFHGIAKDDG

O=P(O)(O)c1nc2cc(Cl)c(Cl)cc2nc1P(=O)(O)O [Compound 13, (6,7-Dichloroquinoxaline-2,3-diyl)bis(phosphonic acid)]
Covalent modification of ColQ1-CU (ColQ1-CU): No molecular masses displayed a mass shift indicating a covalently bound inhibitor; also recorded: did not result in a covalent modification | Reversibility of inhibition, ColA-CU (ColA-CU): only a minimal inhibition
